From patent US12240844B2 (Voronoi, Inc., priority 2019, dated 2025)

Assays:
TTK = target: T1, TTK (Homo sapiens, UniProt P33981); experiment: TTK enzyme inhibition, ADP-Glo kinase assay; assay type: biochemical; parameters: purchased Signalchem T20-10G; settings: ATP 5 μM
T1 sequence (P33981 1-857): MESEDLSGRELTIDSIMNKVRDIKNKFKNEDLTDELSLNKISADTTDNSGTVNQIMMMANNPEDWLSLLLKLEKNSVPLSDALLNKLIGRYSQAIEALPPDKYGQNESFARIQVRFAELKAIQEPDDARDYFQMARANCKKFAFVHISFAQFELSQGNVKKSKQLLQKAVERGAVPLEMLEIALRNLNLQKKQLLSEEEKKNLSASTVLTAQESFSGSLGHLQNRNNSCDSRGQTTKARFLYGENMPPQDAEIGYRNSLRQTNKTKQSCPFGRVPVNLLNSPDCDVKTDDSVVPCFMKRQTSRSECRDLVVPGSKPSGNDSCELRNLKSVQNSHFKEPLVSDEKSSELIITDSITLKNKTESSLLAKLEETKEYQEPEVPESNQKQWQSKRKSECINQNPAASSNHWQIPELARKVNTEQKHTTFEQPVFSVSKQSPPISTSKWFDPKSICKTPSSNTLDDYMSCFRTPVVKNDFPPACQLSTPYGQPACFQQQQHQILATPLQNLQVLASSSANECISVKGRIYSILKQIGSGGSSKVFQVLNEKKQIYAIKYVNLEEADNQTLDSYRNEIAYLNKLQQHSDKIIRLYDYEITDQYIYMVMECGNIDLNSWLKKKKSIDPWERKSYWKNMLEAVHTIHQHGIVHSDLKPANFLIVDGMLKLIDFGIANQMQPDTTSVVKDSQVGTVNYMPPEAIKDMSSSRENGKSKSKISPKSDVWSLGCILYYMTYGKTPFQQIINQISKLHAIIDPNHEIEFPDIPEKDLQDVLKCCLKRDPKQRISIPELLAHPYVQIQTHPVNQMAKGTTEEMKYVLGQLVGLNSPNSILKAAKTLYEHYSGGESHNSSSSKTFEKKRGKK
Method: In order to evaluate the inhibitory activity of the compounds according to the present invention on LRRK2, LRRK2 (G2019S), DYRK1, CLK1 and TTK kinases, the following experiment was performed.
Example compounds were reacted with the purified human TTK (Signalchem #T20-10G) enzyme to evaluate the enzyme inhibitory ability as follows. The reaction buffer was used as the composition of 40 mM Tris-HCl pH7.4, 20 mM MgCl2, 0.1 mg/ml BSA (5× kinase buffer, Signalchem #K03-09) and 50 μM DTT (Signalchem #D86-09B), and the reaction of all test materials was performed on the reaction buffer. The compound was diluted with 10 mM DMSO stock in […] by a serial dilution method, and the enzyme activity was measured at the final compound concentrations of 1, 0.333333, 0.111111, 0.037037, 0.012346, 0.004115, 0.001372, 0.000457, 0.000152, 0.000051 and 0.000017 μM. In the test, the human TTK (7.5 ng) enzyme was reacted with the purified ATP (5 μM, Promega #V6930) and an MBP enzyme substrate (0.2 μg, Signalchem M42-51N) at 25° C. for 4 hours, and then the enzyme activity was identified using the in vitro ADP-Glo™ kinase assay (Promega #V6930). The enzyme activity reaction liquid, an ADP-Glo reaction liquid and an enzyme potency detection solution were reacted in a ratio of 2:2:1, and the degree of inhibition of enzyme activity was measured by luminescence. The degree of inhibition of enzyme activity according to the treatment concentrations of the respective compounds was calculated based on the luminescence degree of the enzyme activity of a solvent control group that was not treated with the compound, where the concentration of each compound to inhibit enzyme activity inhibition by 50% was determined as an IC50 (nM) value and obtained using Prism (Version 8.2, GraphPad) software.
In the table below, the following designations were used for the evaluation of enzyme inhibitory ability.

LRRK2 (G2019S) = LRRK2 (G2019S) (Homo sapiens, UniProt Q5S007, G2019S); experiment: LRRK2 G2019S enzyme inhibition, ADP-Glo kinase assay; assay type: biochemical; parameters: purchased SignalChem L10-12GG
Chain of LRRK2 (G2019S) (Q5S007 970-2527 G2019S limits assumed): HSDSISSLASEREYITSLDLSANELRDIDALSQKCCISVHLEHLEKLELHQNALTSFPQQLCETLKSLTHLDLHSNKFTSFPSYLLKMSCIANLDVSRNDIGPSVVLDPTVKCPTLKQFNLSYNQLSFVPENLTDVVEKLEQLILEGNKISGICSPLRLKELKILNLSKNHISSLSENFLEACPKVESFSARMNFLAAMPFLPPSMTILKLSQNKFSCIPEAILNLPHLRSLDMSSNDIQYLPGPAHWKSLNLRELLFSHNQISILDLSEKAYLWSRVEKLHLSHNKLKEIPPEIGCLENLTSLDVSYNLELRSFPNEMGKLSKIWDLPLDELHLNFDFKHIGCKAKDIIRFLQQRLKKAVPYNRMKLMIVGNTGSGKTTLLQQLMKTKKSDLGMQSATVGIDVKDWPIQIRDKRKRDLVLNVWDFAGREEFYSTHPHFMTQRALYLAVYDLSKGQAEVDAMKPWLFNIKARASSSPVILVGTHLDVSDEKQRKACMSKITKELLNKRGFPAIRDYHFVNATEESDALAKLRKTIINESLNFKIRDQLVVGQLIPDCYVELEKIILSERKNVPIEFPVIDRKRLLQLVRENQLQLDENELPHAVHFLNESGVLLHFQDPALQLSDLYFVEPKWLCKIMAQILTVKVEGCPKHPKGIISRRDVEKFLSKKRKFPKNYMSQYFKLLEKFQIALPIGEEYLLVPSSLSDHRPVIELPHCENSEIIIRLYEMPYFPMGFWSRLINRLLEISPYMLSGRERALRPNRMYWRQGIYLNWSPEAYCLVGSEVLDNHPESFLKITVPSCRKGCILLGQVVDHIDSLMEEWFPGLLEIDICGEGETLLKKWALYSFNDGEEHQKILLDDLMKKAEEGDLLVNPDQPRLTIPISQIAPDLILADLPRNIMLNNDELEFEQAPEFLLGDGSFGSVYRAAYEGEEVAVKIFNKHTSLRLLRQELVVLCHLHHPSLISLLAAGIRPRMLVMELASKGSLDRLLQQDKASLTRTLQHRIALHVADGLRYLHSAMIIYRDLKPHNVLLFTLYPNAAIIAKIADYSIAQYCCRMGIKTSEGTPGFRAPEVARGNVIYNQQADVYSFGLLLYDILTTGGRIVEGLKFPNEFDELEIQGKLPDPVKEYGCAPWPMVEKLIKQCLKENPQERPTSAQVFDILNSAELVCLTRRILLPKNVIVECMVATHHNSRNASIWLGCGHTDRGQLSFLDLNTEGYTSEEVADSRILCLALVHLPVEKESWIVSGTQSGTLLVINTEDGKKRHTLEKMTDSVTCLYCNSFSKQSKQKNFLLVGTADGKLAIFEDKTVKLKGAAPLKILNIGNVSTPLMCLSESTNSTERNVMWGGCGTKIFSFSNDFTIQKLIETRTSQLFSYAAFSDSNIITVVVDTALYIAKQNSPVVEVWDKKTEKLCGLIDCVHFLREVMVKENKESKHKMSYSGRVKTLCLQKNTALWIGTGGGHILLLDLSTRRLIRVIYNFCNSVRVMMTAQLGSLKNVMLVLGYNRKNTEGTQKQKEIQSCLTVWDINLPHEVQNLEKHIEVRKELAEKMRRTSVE
Outline: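 Activity read as ADP-Glo luminescence, normalized to untreated solvent control, with IC50 (nM) fitted over 12 final compound levels (top 50 μM). Reaction: 2 h, 25° C, human LRRK2 G2019S 16 ng, ATP 25 μM, substrate 0.2 μg, in Tris-HCl pH 7.4 with MgCl2, BSA and DTT.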

SMILES	IC50 (TTK)	IC50 (LRRK2 (G2019S))
CCNc1cc(Nc2ccc(C(=O)N3C[C@@H]4C[C@H]3CO4)c3c2OCCO3)nc2[nH]cc(C(F)(F)F)c12 [Example 44, ((1S,4S)-2-oxa-5-azabicyclo[2.2.1]heptan-5-yl)(8-((4-(ethylamino)-3-(trifluoromethyl)-1H-pyrrolo[2,3-b]pyridin-6-yl)amino)-2,3-dihydrobenzo[b] [1,4]dioxin-5-yl)methanone]	< 100 nM	–
O=C(c1ccc(Nc2cc(C3CC3)c3c(C(F)(F)F)c[nH]c3n2)c2c1OCO2)N1CCC(N2CCOCC2)CC1 [Example 49, (7-((4-cyclopropyl-3-(trifluoromethyl)-1H-pyrrolo[2,3-b]pyridin-6-yl)amino)benzo[d][1,3]dioxol-4-yl)(4-morpholinopiperidin-1-yl)methanone]	< 100 nM	–
N#Cc1c[nH]c2nc(Nc3ccc(C(=O)N4CCC(N5CCOCC5)CC4)c4c3OCCO4)cc(C3CC3)c12 [Example 226, 4-cyclopropyl-6-((8-(4-morpholinopiperidine-1-carbonyl)-2,3-dihydrobenzo[b] [1,4]dioxin-5-yl)amino)-1H-pyrrolo[2,3-b]pyridine-3-carbonitrile]	< 100 nM	< 100 nM
CNc1cc(Nc2ccc(C(=O)N3CC[C@@H](N4CCOCC4)C3)c3c2OCC3)nc2[nH]cc(C(F)(F)F)c12 [Example 214, (R)-(7-((4-(methylamino)-3-(trifluoromethyl)-1H-pyrrolo[2,3-b]pyridin-6-yl)amino)-2,3-dihydrobenzofuran-4-yl)(3-morpholinopyrrolidin-1-yl)methanone]	101 to 300 nM	< 100 nM
CCNc1cc(Nc2ccc(C(=O)N3CCN(C4COC4)CC3)c3c2OCCO3)nc2[nH]cc(C(F)(F)F)c12 [Example 173, (8-((4-(ethylamino)-3-(trifluoromethyl)-1H-pyrrolo[2,3-b]pyridin-6-yl)amino)-2,3-dihydrobenzo[b] [1,4]dioxin-5-yl)(4-(oxetan-3-yl)piperazin-1-yl)methanone]	< 100 nM	–
O=C(c1ccc(Nc2cc(NC3CC3)c3c(C(F)(F)F)c[nH]c3n2)c2c1CCO2)N1CCC(N2CCOCC2)CC1 [Example 92, (7-((4-(cyclopropylamino)-3-(trifluoromethyl)-1H-pyrrolo[2,3-b]pyridin-6-yl)amino)-2,3-dihydrobenzofuran-4-yl)(4-morpholinopiperidin-1-yl)methanone]	< 100 nM	< 100 nM
CNc1cc(Nc2ccc(C(=O)N3CCC(N4C[C@@H]5C[C@H]4CO5)CC3)c3c2OCC3)nc2[nH]cc(C(F)(F)F)c12 [Example 241, (4-((1S,4S)-2-oxa-5-azabicyclo[2.2.1]heptan-5-yl)piperidin-1-yl)(7-((4-(methylamino)-3-(trifluoromethyl)-1H-pyrrolo[2,3-b]pyridin-6-yl)amino)-2,3-dihydrobenzofuran-4-yl)methanone]	< 100 nM	< 100 nM
N#Cc1c[nH]c2nc(Nc3ccc(C(=O)N4CCOCC4)c4c3OCCO4)cc(C3CC3)c12 [Example 225, 4-cyclopropyl-6-((8-(morpholine-4-carbonyl)-2,3-dihydrobenzo[b] [1,4]dioxin-5-yl)amino)-1H-pyrrolo[2,3-b]pyridine-3-carbonitrile]	< 100 nM	< 100 nM
CNc1cc(Nc2ccc(C(=O)N3CCC(N4CCOCC4)CC3)c3c2OCC3)nc2[nH]cc(C(F)(F)F)c12 [Example 234, (7-((4-(methylamino)-3-(trifluoromethyl)-1H-pyrrolo[2,3-b]pyridin-6-yl)amino)-2,3-dihydrobenzofuran-4-yl)(4-morpholinopiperidin-1-yl)methanone]	< 100 nM	< 100 nM
CCNc1cc(Nc2ccc(C(=O)N3CCC(N4C[C@H]5C[C@@H]4CO5)CC3)c3c2OCC3)nc2[nH]cc(C(F)(F)F)c12 [Example 244, (4-((1R,4R)-2-oxa-5-azabicyclo[2.2.1]heptan-5-yl)piperidin-1-yl)(7-((4-(ethylamino)-3-(trifluoromethyl)-1H-pyrrolo[2,3-b]pyridin-6-yl)amino)-2,3-dihydrobenzofuran-4-yl)methanone]	< 100 nM	< 100 nM
CCNc1cc(Nc2ccc(C(=O)N3CCN(C4COC4)CC3)c3c2OCC3)nc2[nH]cc(C(F)(F)F)c12 [Example 248, (7-((4-(ethylamino)-3-(trifluoromethyl)-1H-pyrrolo[2,3-b]pyridin-6-yl)amino)-2,3-dihydrobenzofuran-4-yl)(4-(oxetan-3-yl)piperazin-1-yl)methanone]	< 100 nM	< 100 nM

Results, then the compound that gave them:

IC50 (TTK)	IC50 (LRRK2 (G2019S))	SMILES
301 to 1000 nM	101 to 300 nM	CCNc1cc(Nc2cc(F)c(S(=O)(=O)N3CCC(N4CCOCC4)CC3)cc2OC)nc2[nH]cc(C(F)(F)F)c12 [Example 266, N^4-ethyl-N^6-(5-fluoro-2-methoxy-4-((4-morpholinopiperidin-1-yl)sulfonyl)phenyl)-3-(trifluoromethyl)-1H-pyrrolo[2,3-b]pyridine-4,6-diamine]
101 to 300 nM	< 100 nM	COCCNc1cc(Nc2ccc(S(=O)(=O)N3CCC(N4CCOCC4)CC3)c3c2OCCO3)nc2[nH]cc(C(F)(F)F)c12 [Example 97, N^4-(2-methoxyethyl)-N^6-(8-((4-morpholonopiperidin-1-yl)sulfonyl)-2,3-dihydrobenzo[b] [1,4]dioxin-5-yl)-3-(trifluoromethyl)-1H-pyrrolo[2,3-b]pyridine-4,6-diamine]
101 to 300 nM	< 100 nM	COCCNc1cc(Nc2ccc(C(=O)N3CCC(N4CCOCC4)CC3)c3c2OCC3)nc2[nH]cc(C(F)(F)F)c12 [Example 55, (7-((4-((2-methoxyethyl)amino)-3-(trifluoromethyl)-1H-pyrrolo[2,3-b]pyridin-6-yl)amino)-2,3-dihydrobenzofuran-4-yl)(4-morpholinopiperidin-1-yl)methanone]
301 to 1000 nM	301 to 1000 nM	COc1cc(P2(=O)CCN(C(C)=O)CC2)ccc1Nc1cc(C2CC2)c2c(C(F)(F)F)c[nH]c2n1 [Example 48, 1-(4-(4-((4-cyclopropyl-3-(trifluoromethyl)-1H-pyrrolo[2,3-b]pyridin-6-yl)amino)-3-methoxyphenyl)-4-oxido-1,4-azaphosphinan-1-yl)ethan-1-one]
< 100 nM	–	CNc1cc(Nc2ccc(P3(=O)CCN(C4CC4)CC3)cc2OC)nc2[nH]cc(C#N)c12 [Example 146, 6-((4-(1-cyclopropyl-4-oxido-1,4-azaphosphinan-4-yl)-2-methoxyphenyl)amino)-4-(methylamino)-1H-pyrrolo[2,3-b]pyridine-3-carbonitrile]
< 100 nM	< 100 nM	COc1cc(S(=O)(=O)N2CCC(N3CCOCC3)CC2)ccc1Nc1cc(C2CC2)c2c(C#N)c[nH]c2n1 [Example 228, 4-cyclopropyl-6-((2-methoxy-4-((4-morpholinopiperidin-1-yl)sulfonyl)phenyl)amino)-1H-pyrrolo[2,3-b]pyridine-3-carbonitrile]
< 100 nM	–	COCCNc1cc(Nc2ccc(P3(=O)CCN(C4CC4)CC3)cc2OC)nc2[nH]cc(C#N)c12 [Example 148, 6-((4-(1-cyclopropyl-4-oxido-1,4-azaphosphinan-4-yl)-2-methoxyphenyl)amino)-4-((2-methoxyethyl)amino)-1H-pyrrolo[2,3-b]pyridine-3-carbonitrile]
